{"source": "patent US20200054651A1", "about": "“COMPOSITIONS AND METHODS FOR MODULATING PPP2R1A” (The Regents of the University of California, priority 2017, published 2020)", "key": {"[1]": {"test_system": "MCF 10A non-transformed mammary epithelial cells", "assay": "MCF 10A cell proliferation (toxicity to non-transformed cells)", "format": "cell-based", "conditions": "48 h after treatment, Hoescht staining"}, "231MFP tumor xenograft": {"test_system": "231MFP tumor xenograft", "assay": "231MFP tumor xenograft growth", "format": "in vivo, immune-deficient SCID mice", "conditions": "50 mg/kg ip, daily, initiated 15 days after tumor xenograft injection"}, "C328 on vimentin": {"biological_target": "T1, C328 on vimentin (Homo sapiens, UniProt P08670)", "T1 construct": "in vitro treatment of 231MFP breast cancer cell proteomes with withaferin A; endogenous in cells; host or cells: 231MFP breast cancer cells", "T1 sequence (P08670 whole entry)": "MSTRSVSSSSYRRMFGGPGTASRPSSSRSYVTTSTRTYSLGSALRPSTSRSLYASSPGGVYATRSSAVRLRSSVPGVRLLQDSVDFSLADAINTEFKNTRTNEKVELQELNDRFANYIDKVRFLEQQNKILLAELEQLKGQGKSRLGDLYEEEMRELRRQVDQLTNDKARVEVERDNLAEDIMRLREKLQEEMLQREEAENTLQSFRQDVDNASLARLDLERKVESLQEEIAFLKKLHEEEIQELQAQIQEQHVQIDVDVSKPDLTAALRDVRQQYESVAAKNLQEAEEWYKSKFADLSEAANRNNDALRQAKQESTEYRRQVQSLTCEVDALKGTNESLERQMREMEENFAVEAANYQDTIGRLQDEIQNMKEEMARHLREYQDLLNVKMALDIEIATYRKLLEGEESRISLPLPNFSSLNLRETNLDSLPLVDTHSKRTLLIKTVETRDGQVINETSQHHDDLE", "assay": "Competitive isoTOP-ABPP in 231MFP proteomes in vitro", "format": "binding", "conditions": "10 μM, in vitro treatment of 231MFP proteomes", "description": "IsoTOP-ABPP studies were performed using the methods described in “Nature 534(7608), 570-574 (2016)” by Backus K. M., et al. and “Nature 468(7325), 790-795 (2010)” by Weerapana E., et al. Proteome samples diluted in PBS were treated with Withaferin A or vehicle for 30 minutes at 37° C. Then, IAyne (iodoacetamide-alkyne) labeling was performed for 1 hour at room temperature. CuAAC was used by sequential addition of tris(2-carboxyethyl)phosphine (1 mM), tris[(1-benzyl-1H-1,2,3-triazol-4-yl)methyl]amine (34 μM), copper (II) sulfate (1 mM), and biotin-linker-azide where the linker was functionalized with a TEV protease recognition sequence along with an isotopically light or heavy valine for treatment of control or treated proteome, respectively. After click reactions, proteomes were precipitated by centrifugation at 6500×g, washed in ice-cold methanol, combined in a 1:1 control/treated ratio, washed again, then denatured and re-solubilized by heating in 1.2% SDS/PBS to 80° C. for 5 minutes. Insoluble components were precipitated by centrifugation at 6500×g and soluble proteome was diluted in 0.2% SDS/PBS (5 ml). Labeled proteins were bound to avidin-agarose beads (170 μl re-suspended beads/sample) while rotating overnight at 4° C. Bead-linked proteins were enriched by washing three times each in PBS and water, then re-suspended in urea/PBS (6 M), reduced in TCEP (1 mM), alkylated with iodoacetamide (18 mM), then washed and re-suspended in urea/PBS (2 M), and finally trypsinized overnight with 0.5 μg/μl sequencing grade trypsin. Tryptic peptides were eluted off. Beads were washed in PBS (3 times) and water (3 times), washed in TEV buffer solution (water, TEV buffer, 100 μM dithiothreitol), and re-suspended in buffer with Ac-TEV protease and then incubated overnight. Peptides were diluted in water, acidified with formic acid (1.2 M), and prepared for analysis.\nPeptides from all proteomic experiments were pressure-loaded onto an Agilent 600 series RP-HPLC system equipped with a capillary tubing (250 mm) packed with Aqua C18 reverse-phase resin (4 cm). The system was previously equilibrated with a gradient (0% B to 100% B over 10 minutes, 100% B for 5 minutes, then 0% B for 5 minutes; buffer A: 95:5 water:acetonitrile, 0.1% formic acid; buffer B: 80:20 acetonitrile:water, 0.1% formic acid). The samples were then attached using a MicroTee PEEK 360 μm fitting to a laser pulled column (13 cm) packed with Aqua C18 reverse-phase resin (10 cm) and strong-cation exchange resin (3 cm) for isoTOP-ABPP studies. Samples were analyzed using an Q Exactive Plus mass spectrometer using a 5-step Multidimensional Protein Identification Technology (MudPIT) program. […]"}, "HCC38 cells": {"test_system": "HCC38 cells", "assay": "HCC38 serum-free cell survival", "format": "cell-based", "conditions": "10 μM, 48 h"}, "pure human KEAP1": {"biological_target": "T2, pure human KEAP1 (Homo sapiens, UniProt Q14145)", "T2 construct": "purchased Origene", "T2 sequence (Q14145 whole entry)": "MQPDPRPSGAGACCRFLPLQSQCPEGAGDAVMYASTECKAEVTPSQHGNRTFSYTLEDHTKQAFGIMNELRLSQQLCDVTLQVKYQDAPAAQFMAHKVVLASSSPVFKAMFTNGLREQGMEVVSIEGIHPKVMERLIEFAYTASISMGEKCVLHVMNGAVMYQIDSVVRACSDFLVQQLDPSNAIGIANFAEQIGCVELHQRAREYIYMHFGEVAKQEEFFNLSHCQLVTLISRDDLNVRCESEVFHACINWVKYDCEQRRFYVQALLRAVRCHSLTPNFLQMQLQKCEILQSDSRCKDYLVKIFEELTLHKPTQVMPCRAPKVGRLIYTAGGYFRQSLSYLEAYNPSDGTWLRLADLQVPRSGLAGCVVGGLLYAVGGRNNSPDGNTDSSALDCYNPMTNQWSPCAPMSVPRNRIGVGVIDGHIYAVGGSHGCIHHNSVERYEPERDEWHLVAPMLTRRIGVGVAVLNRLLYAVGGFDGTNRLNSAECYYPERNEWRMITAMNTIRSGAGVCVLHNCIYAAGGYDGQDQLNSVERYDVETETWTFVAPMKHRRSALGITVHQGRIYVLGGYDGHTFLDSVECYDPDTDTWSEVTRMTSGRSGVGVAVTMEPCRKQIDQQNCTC", "assay": "Gel-based ABPP, competition against IAyne labeling", "format": "binding", "conditions": "10 μM, 30 min at 37° C.", "description": "(§1) Gel-based ABPP methods were performed using the methods described in “Chem Biol 22(10), 1394-1405 (2015)” by Medina-Cleghorn D., et al. Recombinant pure human proteins were purchased from Origene. Pure proteins were pre-treated with DMSO, Withaferin A, or acrylamide or chloroacetamide compounds (e.g., DKM 2-90 or JNS 1-40) for 30 minutes at 37° C. in an incubation volume of PBS (50 μL), and were subsequently treated with IAyne (10 μM final concentration) for 30 minutes at room temperature. CuAAC was performed to append rhodamine-azide onto IAyne probe-labeled proteins. The samples were separated by SDS/PAGE and scanned using a ChemiDoc MP. Inhibition of target labeling was assessed by densitometry using ImageStudio Light software."}, "pure human vimentin": {"biological_target": "T3, pure human vimentin (Homo sapiens, UniProt P08670)", "T3 construct": "purchased Origene", "T3 sequence (P08670 whole entry)": "as the sequence (P08670 whole entry) above", "assay": "Gel-based ABPP, competition against IAyne labeling", "format": "binding", "conditions": "10 μM, 30 min at 37° C.", "description": "as §1"}}, "data": [{"smiles": "O=C(CCl)Nc1ccc2c(c1)OCCO2", "note": "[DKM 2-90, 2-Chloro-N-(2,3-dihydrobenzo[β][1,4]dioxin-6-yl)acetamide]", "values": [{"measurement": "toxicity to MCF 10A cells (cell proliferation)", "setting": "[1]", "value": "less toxic than DKM 2-91"}]}, {"smiles": "O=C(CCl)N(Cc1ccccc1)c1ccc2c(c1)OCCO2", "note": "[JNS 1-40, N-benzyl-2-chloro-N-(2,3-dihydrobenzo[b][1,4]dioxin-6-yl)acetamide]", "values": [{"measurement": "231MFP tumor xenograft growth", "setting": "231MFP tumor xenograft", "value": "significantly attenuated tumor growth"}]}, {"smiles": "CC1=C(CO)C(=O)O[C@@H]([C@@H](C)[C@H]2CC[C@H]3[C@@H]4C[C@H]5O[C@]56[C@@H](O)C=CC(=O)[C@]6(C)[C@H]4CC[C@]23C)C1", "note": "[withaferin A, reference compound]", "values": [{"measurement": "light to heavy ratio, C328 on vimentin", "setting": "C328 on vimentin", "value": 1.0}, {"measurement": "serum-free cell survival", "setting": "HCC38 cells", "value": "impairs"}, {"measurement": "competition against IAyne labeling of pure human KEAP1", "setting": "pure human KEAP1", "value": "no competition"}, {"measurement": "competition against IAyne labeling of pure human vimentin", "setting": "pure human vimentin", "value": "lack of competition"}]}]}
